The values that follow come from patent US20250319063A1, “METHODS AND COMPOUNDS FOR RESTORING MUTANT P53 FUNCTION” (PMV PHARMACEUTICALS, INC., priority 2022, published 2025).

This series can be described thus: Urine pharmacokinetics in healthy subjects (Ae, CLR, fe). The settings on record: for CL renal: both sexes, human, urine, oral, read-out: renal clearance (CLR), geometric mean (converted). It counts as in vivo, human. The protocol:
Urine for the analysis of study drug was also collected. Participants were asked to void at the end of each collection period to ensure complete collection of urine during each interval. The entire volume of urine voided during each interval was collected and recorded, and a small volume stored for analysis of study drug concentrations.
Various pharmacokinetic (PK) parameters were determined for each subject. (FIGS. 29-31). For example, amount of drug excreted unchanges in urine (Ae), renal clearance (CLR), and fraction excreted in urine (fe).

Structures are written as SMILES. Read-outs that look alike come from different tables or passages of the source.

On to `CNC(=O)c1ccc(NCC#Cc2cc3c(N[C@@H]4CCN(C)C[C@@H]4F)cccc3n2CC(F)(F)F)c(OC)c1` [Compound 1, 4-((3-(4-(((3S,4R)-3-fluoro-1-methylpiperidin-4-yl)amino)-1-(2,2,2-trifluoroethyl)-1H-indol-2-yl)prop-2-yn-1-yl)amino)-3-methoxy-N-methylbenzamide], for which the “total dose excreted in urine as unchanged Compound 1” value (1000 mg, fasted, 96-hour interval) worked out at 2.53%; the “total dose excreted in urine as unchanged Compound 1” value (1000 mg, fed, 96-hour interval) was 3.29%; the “total dose excreted in urine as unchanged Compound 1” value (2000 mg, Japanese, fasted, 96-hour interval) worked out at 2.28%. Further, the “total dose excreted in urine as Compound 1” value runs as follows: (2000 mg, Caucasian/non-Asian, fasted, 96-hour interval) 1.90%; (2000 mg, Caucasian/non-Asian, fed, 96-hour interval) 3.66%. For the setting “96-hour interval, fasted and fed, all participants”, the “dose excreted in urine as unchanged Compound 1” value is recorded as “less than 4%”. The CL renal is 2.87 mL/min (1000 mg, fasted (Part 1)); 3.1 mL/min (1000 mg, fed (Part 1)); 2.53 mL/min (2000 mg, Caucasian/non-Asian, fasted); 2.73 mL/min (2000 mg, Caucasian/non-Asian, fed); 2.33 mL/min (2000 mg, Japanese, fasted).
